We go through two compounds from US9790209B2, “Kinase inhibitors” (Respivert Limited, priority 2012, dated 2017).

One test deals with GSK3α (Homo sapiens (Human), UniProt P49840). In words: GSK 3α enzyme inhibition (Method 2), Z-LYTE FRET. The class given is biochemical. As to the method: (§1) The enzyme inhibitory activities of compounds disclosed herein are determined by FRET using synthetic peptides labelled with both donor and acceptor fluorophores (Z-LYTE, Invitrogen Ltd., Paisley, UK).
The inhibitory activities of compounds of the invention against the GSK 3α enzyme isoform (Invitrogen), are evaluated by determining the level of activation/phosphorylation of the target peptide. The GSK3-α protein (500 ng/mL, 2.5 μL) is mixed with the test compound (2.5 μL at either 4 μg/mL, 0.4 μg/mL, 0.04 μg/mL, or 0.004 μg/mL) for 2 hr at RT. The FRET peptide (8 μM, 2.5 μL), which is a phosphorylation target for GSK3α, and ATP (40 μM, 2.5 μL) are then added to the enzyme/compound mixture and the resulting mixture incubated for 1 hr. Development reagent (protease, 5 μL) is added for 1 hr prior to detection in a fluorescence microplate reader (Varioskan® Flash, ThermoFisher Scientific).
(§2) In all cases, the site-specific protease cleaves non-phosphorylated peptide only and eliminates the FRET signal. Phosphorylation levels of each reaction are calculated using the ratio of coumarin emission (donor) over fluorescein emission (acceptor), for which high ratios indicate high phosphorylation and low ratios indicate low phosphorylation levels. The percentage inhibition of each reaction is calculated relative to non-inhibited control and the 50% inhibitory concentration (IC50 value) is then calculated from the concentration-response curve.
This method follows the same steps as Method 1 above, but utilises a shorter period of mixing of the test compound (105 minutes instead of 2 hours) with the GSK3-α protein.

Another test addresses c-Src (Homo sapiens (Human), UniProt P12931). Briefly: c-Src enzyme inhibition, Z-LYTE FRET. It counts as biochemical. As to the method:
as §1
The inhibitory activities of compounds of the invention against c-Src and Syk enzymes (Invitrogen), are evaluated in a similar fashion to that described hereinabove. The relevant enzyme (3000 ng/mL or 2000 ng/mL respectively, 2.5 μL) is incubated with the test compound (either 4 μg/mL, 0.4 μg/mL, 0.04 μg/mL, or 0.004 μg/mL, 2.5 μL each) for 2 hr at RT. The FRET peptides (8 μM. 2.5 μL), and appropriate ATP solutions (2.5 μL, 800 μM for c-Src, and 60 μM ATP for Syk) are then added to the enzymes/compound mixtures and incubated for 1 hr. Development reagent (protease, 5 μL) is added for 1 hr prior to detection in a fluorescence microplate reader (Varioskan® Flash, ThermoFisher Scientific).
as §2

In the next test the test system is d-U937 cells. In words: LPS-induced TNFα/IL-8 release in d-U937 cells. It counts as cell-based. Particulars: Homo sapiens, dU937, LPS-stimulated d-U937 cells. As to the method:
U937 cells, a human monocytic cell line, are differentiated to macrophage-type cells by incubation with phorbol myristate acetate (PMA; 100 ng/mL) for 48 to 72 hr. Cells are pre-incubated with final concentrations of test compound for 2 hr and are then stimulated with 0.1 μg/mL of LPS (from E. Coli: 0111:B4, Sigma) for 4 hr. The supernatant is collected for determination of TNFα and IL-8 concentrations by sandwich ELISA (Duo-set, R&D systems). The inhibition of TNFα production is calculated as a percentage of that achieved by 10 μg/mL of BIRB796 at each concentration of test compound by comparison against vehicle control. The relative 50% effective concentration (REC50) is determined from the resultant concentration-response curve. The inhibition of IL-8 production is calculated at each concentration of test compound by comparison with vehicle control. The 50% inhibitory concentration (IC50) is determined from the resultant concentration-response curve.

In test [1] the test system is intestinal mucosa biopsies from the inflamed regions of the colon of ulcerative colitis patients. Briefly: Human biopsy assay (ex-vivo cytokine release). It counts as cell-based. Conditions: 1 μg/mL, 24 hours; for Cytokine (IL-1β, IL-6 and IL-8) release compared to the DMSO control: biopsies from ulcerative colitis patients; for IL-1β release from biopsies of UC patients / IL-6 release from biopsies of UC patients / IL-8 release from biopsies of UC patients: relative to DMSO control = 100%. As to the method: Intestinal mucosa biopsies are obtained from the inflamed regions of the colon of IBD patients. The biopsy material is cut into small pieces (2-3 mm) and placed on steel grids in an organ culture chamber at 37° C. in a 5% CO2/95% O2 atmosphere in serum-free media. DMSO control or test compounds at the desired concentration are added to the tissue and incubated for 24 hr in the organ culture chamber. The supernatant is harvested for determination of IL-6, IL-8, IL-1P and TNFα levels by R&D ELISA.
Percentage inhibition of cytokine release by the test compounds is calculated relative to the cytokine release determined for the DMSO control (100%).

For test [2], the system named is TNBS-induced colitis in mice. Briefly: TNBS-induced colitis in mice. Particulars: for Ulcer grade / LP inflammation: 2 days; for Activity in in vivo model of colonic inflammation (histopathology analysis) / Inflammatory cell infiltrate in the reticular and lamina propria zones: assay (iv) conducted over 2 days; for Ulcer grade and epithelial repair compared to the vehicle control: dosed orally at 5 mg/kg (Example 2: at 1 and at 5 mg/kg). More on the design: Ulcer grade / LP inflammation: scale not given here. It counts as in vivo. Here is the method:
On Day 0 of the study TNBS (200 μL) is administered intra-colonically via a plastic catheter followed by BID dosing of the vehicle, reference or test compound for 2 or 4 days. During the study animals are weighed every day and stool observations are made and recorded as a score, based on stool consistency. At the time of sacrifice on Day 2 (or Day 4) the large intestine is removed and the length and weight recorded. Sections of the colon are taken for either MPO analysis to determine neutrophil infiltration or for histopathology involving scoring to determine disease severity.

The subject of the next test is PBMCs. Briefly: IL-2 and IFN gamma release in CD3/CD28 stimulated PBMC cells. It counts as cell-based. Conditions: Homo sapiens. Here is the method: PBMCs from healthy subjects are separated from whole blood using a density gradient (Lymphoprep, Axis-Shield Healthcare). Cells are added to a 96 well plate pre-coated with a mixture of CD3/CD38 monoclonal antibodies (0.3 μg/mL eBioscience and 3 μg/mL BD Pharmingen respectively). Compound at the desired concentration is then added to the wells and the plate left for 3 days under normal tissue culture conditions. Supernatants are harvested and IL-2 and IFN gamma release determined by Sandwich ELISA (Duo-set, R&D System). The IC50 is determined from the dose response curve.

The subject of the next test is HT29 cells. Briefly: IL-1-induced IL-8 release in HT29 cells. The class given is cell-based. Particulars: Homo sapiens, HT-29, IL-1β-stimulated HT29 cells, read-out: IC50 Values for Inhibition of Cytokine Release HT29 cells IL-8. As to the method:
HT29 cells, a human colon adenocarcinoma cell line, are plated in a 96 well plate (24 hrs) and pre-treated with compounds at the desired concentration for 2 hours before addition of 5 ng/mL of IL-1β (Abcam) for 24 hours. Supernatants are harvested for IL-8 quantification by Sandwich ELISA (Duo-set, R&D System). The IC50 is determined from the dose response curve.

The mark [3] stands for this setting: IL-8, read-out: IC50 Values for Inhibition of Cytokine Release dU937 cells IL-8.
[4] abbreviates: IFNγ, read-out: IC50 Values for Inhibition of Cytokine Release PBMCs IFNγ.
[5] abbreviates: IL-2, read-out: IC50 Values for Inhibition of Cytokine Release PBMCs IL-2.

Like-named read-outs stand apart in the source and are kept apart here.

c-Src, sequence (P12931 whole entry, looked up): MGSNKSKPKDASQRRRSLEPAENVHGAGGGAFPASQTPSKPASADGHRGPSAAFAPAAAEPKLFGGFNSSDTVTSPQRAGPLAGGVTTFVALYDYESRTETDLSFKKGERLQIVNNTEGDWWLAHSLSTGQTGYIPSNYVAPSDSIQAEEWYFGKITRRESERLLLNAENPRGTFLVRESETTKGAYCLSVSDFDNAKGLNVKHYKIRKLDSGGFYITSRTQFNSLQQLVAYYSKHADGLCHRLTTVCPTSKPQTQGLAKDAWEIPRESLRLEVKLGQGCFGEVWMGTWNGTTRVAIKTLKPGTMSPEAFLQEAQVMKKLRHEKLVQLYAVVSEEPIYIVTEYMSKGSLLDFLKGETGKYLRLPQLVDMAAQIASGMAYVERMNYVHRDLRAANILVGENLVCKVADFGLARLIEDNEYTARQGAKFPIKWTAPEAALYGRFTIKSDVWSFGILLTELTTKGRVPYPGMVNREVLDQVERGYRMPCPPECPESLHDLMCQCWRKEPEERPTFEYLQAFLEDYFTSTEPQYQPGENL
GSK3α, sequence (P49840 whole entry, canonical isoform): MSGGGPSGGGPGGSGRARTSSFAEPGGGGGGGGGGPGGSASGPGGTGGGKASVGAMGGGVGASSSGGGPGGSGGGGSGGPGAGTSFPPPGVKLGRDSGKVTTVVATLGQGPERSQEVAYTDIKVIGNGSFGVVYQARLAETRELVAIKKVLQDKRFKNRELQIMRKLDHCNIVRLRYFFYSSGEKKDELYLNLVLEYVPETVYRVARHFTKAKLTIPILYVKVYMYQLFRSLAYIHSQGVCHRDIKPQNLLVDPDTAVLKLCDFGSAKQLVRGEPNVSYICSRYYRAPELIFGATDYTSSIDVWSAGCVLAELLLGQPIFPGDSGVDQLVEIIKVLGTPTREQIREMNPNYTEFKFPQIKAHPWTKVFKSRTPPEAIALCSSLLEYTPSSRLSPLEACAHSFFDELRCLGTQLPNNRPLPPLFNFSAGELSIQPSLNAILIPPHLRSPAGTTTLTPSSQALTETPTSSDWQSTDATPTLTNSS

Regarding `C#CC(C)(C)c1cc(NC(=O)Nc2ccc(Oc3ccnc(Nc4cc(OC)cc(OCCOCCOCCOC)c4)n3)c3ccccc23)n(-c2ccc(C)cc2)n1` [Example 13, 1-(4-((2-((3-Methoxy-5-(2-(2-(2-methoxyethoxy)ethoxy)ethoxy)phenyl)amino)pyrimidin-4-yl)oxy)naphthalen-1-yl)-3-(3-(2-methylbut-3-yn-2-yl)-1-(p-tolyl)-1H-pyrazol-5-yl)urea], the IC50 at GSK3α was determined as 6.4 µM; against c-Src, 16 nM; with d-U937 cells (setting [3]), 0.5 nM; in the test on PBMCs (setting [4]), 1.3 nM; in the test on PBMCs (setting [5]), 58.8 nM; with HT29 cells, 1.7 nM. The “Cytokine (IL-1β, IL-6 and IL-8) release compared to the DMSO control” value in test [1] is listed as “significantly inhibited”. The “IL-1β release from biopsies of UC patients” value in test [1] was found to be 3 ± 3%. Further, in test [1], the “IL-6 release from biopsies of UC patients” value stood at 37 ± 52%. Also, the “IL-8 release from biopsies of UC patients” value in test [1] came out at 7 ± 8%. Also, the Ulcer grade worked out at 3.0 ± 0.4 in test [2] (Experiment 2, 1 mg/kg oral BID, TNBS + Vehicle 4.4 ± 0.2) and 2.9 ± 0.5 in test [2] (Experiment 2, 5 mg/kg oral BID, TNBS + Vehicle 4.4 ± 0.2). Moreover, the LP inflammation in test [2] (Experiment 2, 1 mg/kg oral BID, TNBS + Vehicle 4.5 ± 0.2) turned out to be 2.8 ± 0.3; in test [2] (Experiment 2, 5 mg/kg oral BID, TNBS + Vehicle 4.5 ± 0.2), 2.3 ± 0.3. Also, the “Activity in in vivo model of colonic inflammation (histopathology analysis)” value in test [2] is on record as “significant activity”. Moreover, the “Inflammatory cell infiltrate in the reticular and lamina propria zones” value in test [2] is reported as “marked reduction”. Besides, the “Ulcer grade and epithelial repair compared to the vehicle control” value in test [2] is reported as “marked improvements”.

With `C#CC(C)(C)c1cc(NC(=O)Nc2ccc(Oc3ccnc(Nc4cc(C)c5[nH]ncc5c4)n3)c3ccccc23)n(-c2ccc(C)cc2)n1` [Example 2, 1-(4-((2-((7-Methyl-1H-indazol-5-yl)amino)pyrimidin-4-yl)oxy)naphthalen-1-yl)-3-(3-(2-methylbut-3-yn-2-yl)-1-(p-tolyl)-1H-pyrazol-5-yl)urea], the IC50 against GSK3α is > 10 µM; at c-Src it was 24 nM; in the test on d-U937 cells (setting [3]) it was 0.9 nM; with d-U937 cells (TNFα (method describes REC50 relative to BIRB796), read-out: IC50 Values for Inhibition of Cytokine Release dU937 cells TNFα), 0.4 nM; in the test on PBMCs (setting [4]) it was 3.6 nM; with PBMCs (setting [5]), 18 nM. Further, the IC50 in the test with HT29 cells amounted to 3.2 nM. Further, the “Cytokine (IL-1β, IL-6 and IL-8) release compared to the DMSO control” value in test [1] is on record as “significantly inhibited”. In addition, the “IL-1β release from biopsies of UC patients” value in test [1] is recorded as 20 ± 13%. In addition, in test [1], the “IL-6 release from biopsies of UC patients” value is 37 ± 41%. The “IL-8 release from biopsies of UC patients” value in test [1] came to 22 ± 21%. The LP inflammation in test [2] (Experiment 1, 1 mg/kg oral BID, TNBS + Vehicle 3.9 ± 0.3) stood at 2.7 ± 0.4; in test [2] (Experiment 1, 5 mg/kg oral BID, TNBS + Vehicle 3.9 ± 0.3), 1.7 ± 0.4. Moreover, the Ulcer grade was 3.4 ± 0.6 in test [2] (Experiment 1, 1 mg/kg oral BID, TNBS + Vehicle 4.0 ± 0.5) and 2.4 ± 0.6 in test [2] (Experiment 1, 5 mg/kg oral BID, TNBS + Vehicle 4.0 ± 0.5). The “Activity in in vivo model of colonic inflammation (histopathology analysis)” value in test [2] was “significant activity”. Moreover, the “Inflammatory cell infiltrate in the reticular and lamina propria zones” value in test [2] is “marked reduction”. Also, the “Ulcer grade and epithelial repair compared to the vehicle control” value in test [2] was “marked improvements”.

As usually defined, the IC50 is the midpoint of a concentration-inhibition curve.
